Test results: the NIST ThermoML archive (doi:10.1021/je100100n)

How the values were obtained:
[1] = 101.3 kPa, Liquid
[2] = xn = mol fraction of the nth substance listed; details: 101 kPa, Liquid

CCCO [propan-1-ol]
[1]
Details | mass density [kg/m3]
288.15 K | 809.009
298.15 K | 800.973
313.15 K | 788.687
328.15 K | 775.974

CCOC(=O)CC(=O)OCC [diethyl 1,3-propanedioate] + CCCCO
mass density [kg/m3], [2]
Details | 288.15 K | 298.15 K | 313.15 K | 328.15 K
x1 = 0.1001 | 850.611 | 842.336 | 829.747 | 816.824
x1 = 0.2002 | 883.667 | 874.886 | 861.524 | 847.882
x1 = 0.3001 | 913.38 | 904.169 | 890.202 | 875.956
x1 = 0.35 | 927.207 | 917.818 | 903.569 | 889.092
x1 = 0.4 | 940.225 | 930.667 | 916.189 | 901.465
x1 = 0.45 | 952.775 | 943.06 | 928.349 | 913.434
x1 = 0.5 | 964.641 | 954.786 | 939.89 | 924.793
x1 = 0.5501 | 976.114 | 966.141 | 951.051 | 935.788
x1 = 0.5999 | 986.952 | 976.853 | 961.602 | 946.182
x1 = 0.7 | 1007.44 | 997.139 | 981.612 | 965.954
x1 = 0.7998 | 1026.31 | 1015.86 | 1000.1 | 984.244
x1 = 0.9001 | 1043.95 | 1033.35 | 1017.41 | 1001.38
x1 = 1 | 1060.33 | 1049.6 | 1033.5 | 1017.34

CCCCCO [pentan-1-ol]
[1]
Details | mass density [kg/m3]
288.15 K | 818.801
298.15 K | 811.465
313.15 K | 800.264
328.15 K | 788.737

CCO [ethanol] + CCOC(=O)CC(=O)OCC
[2], x2 = 0
Details | mass density [kg/m3]
288.15 K | 794.044
298.15 K | 785.489
313.15 K | 772.42
328.15 K | 758.958

CO [methanol] + CCOC(=O)CC(=O)OCC
[2], x2 = 0
Details | mass density [kg/m3]
288.15 K | 796.406
298.15 K | 786.987
313.15 K | 772.74
328.15 K | 758.201
